This is an account of results in patent publication US7820025B2, “Methods of synthesizing an oxidant and applications thereof” (Ferrate Treatment Technologies, LLC, priority 2000, dated 2010).

In one assay the test system is E. coli. The assay can be described thus: Ferrate disinfection test of harbor waters, E. coli count. The assay is classed as cell-based. The source says:
(§1) We have conducted preliminary ferrate disinfection tests of harbor waters at two locations in the Port of Cape Canaveral, Fla. Sample A was collected at the inner Port, while Sample B was collected closer to the exit at the Port nearer to the open ocean.

Another assay deals with virus f2. To be noted: low concentrations in water; cited from earlier work.
Another assay concerns aerobic spore-formers. To be noted: chlorine resistant bacteria; cited from earlier work.
In assay [1] the test system is sulfite-reducing clostridia. To be noted: chlorine resistant bacteria; cited from earlier work.
Another assay relates to Total Coliform. Kind of assay: Ferrate disinfection test of harbor waters, Total Coliform count. In kind it is cell-based.
From the text: as §1

The test system of a further assay is total coliforms. To be noted: water sources collected worldwide; cited from earlier work.
For the next assay, the system named is Heterotrophic bacteria. The assay can be described thus: Ferrate disinfection test of harbor waters, Heterotrophic bacterial plate count (HPC). In kind it is cell-based. The settings on record: for HPC: ferrate dose 2.0 mg/L FeO4^2−.
From the text: as §1

In another assay the test system is biofilm. The settings on record: model condensers dosed with 10^−5 M solutions of ferrate twice a day, for 5 minutes; cited from earlier work.
The mark [2] stands for this setting: harbor water Sample A, ferrate dose 1.0 mg/L FeO4^2−.
[3] abbreviates: harbor water Sample A, ferrate dose 2.0 mg/L FeO4^2−.
[4] abbreviates: harbor water Sample B, ferrate dose 1.0 mg/L FeO4^2−.
Setting [5] is: harbor water Sample B, ferrate dose 2.0 mg/L FeO4^2−.

With `[O]=[Fe](=[O])([O-])[O-]` [Ferrate, ferrate], the “disinfection for E. coli (in words)” value in the assay with E. coli (both samples, dose 0.5 mg/L) was “effective in killing E. coli”. Moreover, the “E. Coli” value in the assay with E. coli (harbor water Sample A, ferrate dose 0.5 mg/L FeO4^2−) is reported as below 1 MPN/100 mL; in the assay on E. coli (setting [2]), below 1 MPN/100 mL; in the assay on E. coli (setting [3]), below 1 MPN/100 mL; in the assay on E. coli (harbor water Sample B, ferrate dose 0.5 mg/L FeO4^2−), below 1 MPN/100 mL; with E. coli (setting [4]), below 1 MPN/100 mL; with E. coli (setting [5]), below 1 MPN/100 mL. Moreover, in the assay with virus f2, the “inactivation of virus f2” value is listed as “rapidly inactivates”. Moreover, the reduction of spore-formers result in the assay with aerobic spore-formers was “up to 3 log units”. In addition, the “killing of sulfite-reducing clostridia” value in assay [1] is listed as “effectively killed”. For the same molecule, the “total coliform level after ferrate addition (in words)” value in the assay with Total Coliform (Sample A, ferrate dose 0.5 mg/L) is on record as “reduced to non-detectable levels”. Further, the “Total Coliform” value in the assay on Total Coliform (harbor water Sample A (inner Port, Port of Cape Canaveral), ferrate dose 0.5 mg/L FeO4^2−) is below 1 MPN/100 mL; in the assay on Total Coliform (setting [2]), below 1 MPN/100 mL; with Total Coliform (setting [3]) it was below 1 MPN/100 mL; with Total Coliform (harbor water Sample B (near Port exit), ferrate dose 0.5 mg/L FeO4^2−) it was below 1 MPN/100 mL; in the assay on Total Coliform (setting [4]), below 1 MPN/100 mL; in the assay with Total Coliform (setting [5]) it was below 1 MPN/100 mL. Also, in the assay with total coliforms, the “removal of total coliforms” value is “complete removal”. The HPC with Heterotrophic bacteria (harbor water Sample A) and in the assay with Heterotrophic bacteria (harbor water Sample B) was below 5 cfu/mL in each case. Besides, the “levels of Heterotrophic bacteria after ferrate (in words)” value with Heterotrophic bacteria (samples A and B, dose of approximately 2 mg/L) is listed as “reduced to non-detectable values”. For the same molecule, the biofilm growth entry in the assay with biofilm is recorded as “inhibited”.
